# Reference: US20180263996A1, “ARYL SULTAM DERIVATIVES AS RORc MODULATORS” (Genentech, Inc., priority 2015, published 2018)
# Target: T1, RORc (Homo sapiens, UniProt P51449)
# T1 construct: host or cells: E. coli
# T1 sequence (P51449 269-508 limits assumed): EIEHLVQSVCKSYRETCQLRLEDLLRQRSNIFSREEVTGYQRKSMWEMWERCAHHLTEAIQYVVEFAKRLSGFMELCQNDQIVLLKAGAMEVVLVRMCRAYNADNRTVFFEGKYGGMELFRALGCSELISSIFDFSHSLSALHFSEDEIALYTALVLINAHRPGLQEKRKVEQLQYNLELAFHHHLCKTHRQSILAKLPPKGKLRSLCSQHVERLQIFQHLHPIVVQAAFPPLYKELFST
# Test: In Vitro RORc Ligand Binding Assay
# Details: IC50 values for RORc
# Method: This assay was used to determine a compound's potency in inhibiting activity of RORc by determining, Kiapp, IC50, or percent inhibition values.
# On day of the assay, 100 uL of 0.05% CHAPS (in deionized H2O) was added to all wells of the GFB Unifilter plate and allowed soak for 1 h. A wash buffer of 50 mM HEPES (pH 7.4), 150 mM NaCl, and 5 mM MgCl2 was prepared to wash the filter plate. To prepare an assay buffer, BSA was added to the wash buffer to reach 0.01% and DTT was added to reach 1 mM.
# The 20× compound stocks were diluted in DMSO with Assay Buffer 4-fold to reach 5× the final test concentration in 25% DMSO (10 uL compound+30 uL Assay Buffer). Solutions were mixed by aspiration several times with a pipette set on 50 uL volume.
# For two point screening, 10 mM stock compound solutions were diluted in DMSO to obtain 200 uM (20× the high test concentration) and then diluted 10-fold further to reach 20 uM (20× the low test concentration). The 20× stocks were diluted 4-fold with Assay Buffer (10 uL compound+30 uL Assay Buffer) to reach 5× the test concentrations (50 uM and 5 uM) and 10 uL were added to two assay plates for the duplicate wells. With each concentration tested on 2 plates, each set of 80 compounds used 4 assay plates (1 uM and 10 uM, with n=2).
# For 25-hydroxycholesterol in 25% DMSO/75% Assay Buffer; 10 uL per well was used for NSB samples. Wells for Total Binding and No Receptor sample determination contained 10 uL of 25% DMSO/75% Assay Buffer per well.
# Add 20 uL to all wells to reach 6 nM final concentration in the assay.
# Stock receptor solution was diluted in assay buffer to obtain 1.5 ug/mL in Assay Buffer. 20 uL was added to all wells. For No Receptor samples, 20 uL Assay Buffer was substituted for receptor solution.
# Assay plates were 96-well polypropylene V-bottom plates. […] 10 uL of 25% DMSO/75% Assay Buffer was added to Total Binding or No Receptor wells. 10 uL of 5 uM 25-hydroxycholesterol in 25% DMSO/75% Assay Buffer was added to NSB wells. […] 20 uL of 1.5 ug/mL RORc receptor was added to wells (or 40 uL Assay Buffer to No R wells). Following addition to the wells, the plates were incubated 3 h at 25° C.
# Using a Packard Filtermate Harvester, the filter plate were washed 4 times following transfer of the incubated samples. Plates were dry-filtered completely (2 h at 50° C. or overnight at room temperature). 50 uL Microscint 0 was added to all wells and read on Topcount protocol Inverted.
# Final concentrations were as follows: 50 mM HEPES buffer (pH 7.4); 150 mM NaCl; 1 mM DTT; 5 mM MgCl2; 0.01% BSA; 5% DMSO; 0.6 ug/mL RORc receptor; 6 nM 25-[^3H]hydroxycholesterol. For NSB wells, 1 uM 25-hydroxycholesterol was also present.
row,IC50 [nM],Structure (SMILES)
1,234,"C[C@H]1CC[C@H](c2ccccc2)S(=O)(=O)N1Cc1ccc(C2(C(=O)NC3(C#N)CC3)CCOCC2)cc1F (stereo in doubt) [Compound 36, N-(1-cyanocyclopropyl)-4-[3-fluoro-4-[[(3S,6R)-3-methyl-1,1-dioxo-6-phenyl-thiazinan-2-yl]methyl]phenyl]tetrahydropyran-4-carboxamide]"
2,33.1,"C[C@H]1CC[C@H](c2ccccc2)S(=O)(=O)N1Cc1cc(F)c(C2(NC(=O)C3CC3)COC2)cc1F (stereo in doubt) [Compound 46, N-[3-[2,5-difluoro-4-[[(3S,6R)-3-methyl-1,1-dioxo-6-phenyl-thiazinan-2-yl]methyl]phenyl]oxetan-3-yl]cyclopropanecarboxamide]"
3,7,"Cc1cc(C(=O)NC(C)c2cc(F)c(CN3[C@@H](C)CC[C@H](c4ccccc4)S3(=O)=O)cc2F)no1 (stereo in doubt) [Compound 51, N-[1-[2,5-difluoro-4-[[(3S,6R)-3-methyl-1,1-dioxo-6-phenyl-thiazinan-2-yl]methyl]phenyl]ethyl]-5-methyl-isoxazole-3-carboxamide]"
4,14,"Cc1n[nH]cc1C(=O)NC(C)c1cc(F)c(CN2[C@@H](C)CC[C@H](c3ccccc3)S2(=O)=O)cc1F (stereo in doubt) [Compound 53, N-[1-[2,5-difluoro-4-[[(3S,6R)-3-methyl-1,1-dioxo-6-phenyl-thiazinan-2-yl]methyl]phenyl]ethyl]-3-methyl-1H-pyrazole-4-carboxamide]"
5,11,"CC(NC(=O)c1ccno1)c1cc(F)c(CN2[C@@H](C)CC[C@H](c3ccccc3)S2(=O)=O)cc1F (stereo in doubt) [Compound 55, N-[1-[2,5-difluoro-4-[[(3S,6R)-3-methyl-1,1-dioxo-6-phenyl-thiazinan-2-yl]methyl]phenyl]ethyl]isoxazole-5-carboxamide]"
6,107,"Cc1cc(C(=O)NC(C)c2cc(F)c(CN3[C@@H](C)CC[C@H](c4ccccc4)S3(=O)=O)cc2F)[nH]n1 (stereo in doubt) [Compound 56, N-[1-[2,5-difluoro-4-[[(3S,6R)-3-methyl-1,1-dioxo-6-phenyl-thiazinan-2-yl]methyl]phenyl]ethyl]-3-methyl-1H-pyrazole-5-carboxamide]"
7,145,"CC(NC(=O)c1cnccn1)c1cc(F)c(CN2[C@@H](C)CC[C@H](c3ccccc3)S2(=O)=O)cc1F (stereo in doubt) [Compound 57, N-[1-[2,5-difluoro-4-[[(3S,6R)-3-methyl-1,1-dioxo-6-phenyl-thiazinan-2-yl]methyl]phenyl]ethyl]pyrazine-2-carboxamide]"
8,254,"CC(NC(=O)c1ccn(C)n1)c1cc(F)c(CN2[C@@H](C)CC[C@H](c3ccccc3)S2(=O)=O)cc1F (stereo in doubt) [Compound 58, N-[1-[2,5-difluoro-4-[[(3S,6R)-3-methyl-1,1-dioxo-6-phenyl-thiazinan-2-yl]methyl]phenyl]ethyl]-1-methyl-pyrazole-3-carboxamide]"
9,93,"CC(NC(=O)c1c[nH]cn1)c1cc(F)c(CN2[C@@H](C)CC[C@H](c3ccccc3)S2(=O)=O)cc1F (stereo in doubt) [Compound 59, N-[1-[2,5-difluoro-4-[[(3S,6R)-3-methyl-1,1-dioxo-6-phenyl-thiazinan-2-yl]methyl]phenyl]ethyl]-1H-imidazole-4-carboxamide]"
10,54.5,"Cc1nocc1C(=O)NC(C)c1cc(F)c(CN2[C@@H](C)CC[C@H](c3ccccc3)S2(=O)=O)cc1F (stereo in doubt) [Compound 60, N-[1-[2,5-difluoro-4-[[(3S,6R)-3-methyl-1,1-dioxo-6-phenyl-thiazinan-2-yl]methyl]phenyl]ethyl]-3-methyl-isoxazole-4-carboxamide]"
11,14,"CC(NC(=O)c1cnn(C)c1)c1cc(F)c(CN2[C@@H](C)CC[C@H](c3ccccc3)S2(=O)=O)cc1F (stereo in doubt) [Compound 61, N-[1-[2,5-difluoro-4-[[(3S,6R)-3-methyl-1,1-dioxo-6-phenyl-thiazinan-2-yl]methyl]phenyl]ethyl]-1-methyl-pyrazole-4-carboxamide]"
